IC50 data for 49 molecules are collected here from US12673946B2, “Pyrimidin-4(3H)-one derivatives as TRPV4 antagonists” (RaQualia Pharma Inc., priority 2020, dated 2026).

pIC50: −log10 of the molar value.

The test has as its target T1, human TRPV4 (Homo sapiens, UniProt Q9HBA0).
T1 construct: host or cells: tetracycline-inducible Flp-In T-REx 293 cells
Briefly: Hypotonicity-induced Ca2+ influx (Fluo-4, FDSS). The test is classed as cell-based. The method in brief: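 Flp-In T-REx 293 cells with tetracycline-induced human TRPV4, loaded with Fluo-4 for 60 min at 25 °C. Compound added 5 min before hypotonic mannitol/CaCl2 solution. Ca2+ signal recorded for 4.5 min on FDSS.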

The mark [1] stands for this setting: Flp-In T-REx 293 cells expressing human TRPV4, examples listed under heading 'Human IC50<50 nM'.
Where [2] appears, read: Flp-In T-REx 293 cells stably expressing human TRPV4, compounds listed by potency bin (<10 nM Tables 96-1/96-2, <3 nM Table 97).

T1 sequence (Q9HBA0 whole entry): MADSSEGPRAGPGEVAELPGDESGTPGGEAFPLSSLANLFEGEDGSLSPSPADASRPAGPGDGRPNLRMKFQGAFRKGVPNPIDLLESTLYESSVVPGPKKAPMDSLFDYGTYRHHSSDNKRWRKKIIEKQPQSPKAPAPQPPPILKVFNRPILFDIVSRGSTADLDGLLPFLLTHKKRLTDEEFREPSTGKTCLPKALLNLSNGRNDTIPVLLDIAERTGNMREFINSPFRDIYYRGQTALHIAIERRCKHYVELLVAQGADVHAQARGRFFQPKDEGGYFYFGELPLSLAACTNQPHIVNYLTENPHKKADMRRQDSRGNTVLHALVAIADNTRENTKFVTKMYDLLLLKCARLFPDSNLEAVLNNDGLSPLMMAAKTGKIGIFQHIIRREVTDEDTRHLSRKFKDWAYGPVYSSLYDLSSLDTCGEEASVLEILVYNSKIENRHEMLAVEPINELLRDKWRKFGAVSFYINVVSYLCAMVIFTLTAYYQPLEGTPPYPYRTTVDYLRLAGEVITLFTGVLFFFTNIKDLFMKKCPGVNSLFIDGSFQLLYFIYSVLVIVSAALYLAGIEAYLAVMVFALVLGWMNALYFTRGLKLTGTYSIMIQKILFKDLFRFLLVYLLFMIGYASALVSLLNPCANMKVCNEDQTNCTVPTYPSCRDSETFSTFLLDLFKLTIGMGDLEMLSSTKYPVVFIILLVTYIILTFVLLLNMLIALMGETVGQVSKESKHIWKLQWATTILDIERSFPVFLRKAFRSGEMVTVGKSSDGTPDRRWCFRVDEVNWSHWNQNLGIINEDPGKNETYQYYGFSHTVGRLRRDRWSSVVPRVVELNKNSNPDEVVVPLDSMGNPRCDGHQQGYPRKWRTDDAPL

For orientation: pIC50 means the negative decadic logarithm of the IC50, by convention in mol/L. A low value points to a high IC50. With `O=C([C@H](O)c1cccc(-c2cccc(C(F)(F)F)c2)c1)N1CCc2nc(C3(c4ccccc4)CC3)[nH]c(=O)c2C1` [44-71], the pIC50 was over 7.30 under setting [1] and over 8.52 under setting [2].
As for `O=C([C@H](O)c1cccc(-c2cccc(OC(F)(F)F)c2)c1)N1CCc2nc(C3(c4ccccc4)CC3)[nH]c(=O)c2C1` [44-72], the pIC50 is, setting by setting: under setting [1], over 7.30; under setting [2], over 8.52.
The molecule `O=C([C@H](O)c1cccc(-c2cccc(Cl)c2)c1)N1CCc2nc(C3(c4ccccc4)CC3)[nH]c(=O)c2C1` [44-73] showed a pIC50 under setting [1] of over 7.30 and a pIC50 under setting [2] of over 8.00.
The corresponding values for `CC(C)(C)c1cccc(-c2cccc([C@@H](O)C(=O)N3CCc4nc(C5(c6ccccc6)CC5)[nH]c(=O)c4C3)c2)c1` [44-74] are over 7.30 and over 8.52.
On the same counts, the results for `O=C([C@H](O)c1cccc(-c2cc(F)cc(Cl)c2)c1)N1CCc2nc(C3(c4ccccc4)CC3)[nH]c(=O)c2C1` [44-77] are over 7.30 and over 8.00.
`O=C([C@H](O)c1cccc(-c2cccc(C(F)(F)F)n2)c1)N1CCc2nc(C3(c4ccccc4)CC3)[nH]c(=O)c2C1` [44-78]: the pIC50 under setting [1] was over 7.30 and the pIC50 under setting [2] was over 8.52.
On the same counts, the results for `O=C([C@H](O)c1cccc(-c2ccnc(C(F)(F)F)c2)c1)N1CCc2nc(C3(c4ccccc4)CC3)[nH]c(=O)c2C1` [44-79] are over 7.30 and over 8.52.
Turning to `O=C([C@H](O)c1cccc(-c2cnc3ccccc3c2)c1)N1CCc2nc(C3(c4ccccc4)CC3)[nH]c(=O)c2C1` [44-81], the pIC50 is over 7.30 under setting [1] and over 8.52 under setting [2].
On the same counts, the results for `O=C([C@H](O)c1cccc(-c2ccc(F)c(Cl)c2)c1)N1CCc2nc(C3(c4ccccc4)CC3)[nH]c(=O)c2C1` [44-82] are over 7.30 and over 8.52.
On the same counts, the results for `O=C([C@H](O)c1cccc(-c2ccc(OCc3ccccc3)nc2)c1)N1CCc2nc(C3(c4ccccc4)CC3)[nH]c(=O)c2C1` [44-83] are over 7.30 and over 8.00.
On the same counts, the results for `O=C([C@H](O)c1cccc(-c2cc3ccccc3o2)c1)N1CCc2nc(C3(c4ccccc4)CC3)[nH]c(=O)c2C1` [44-84] are over 7.30 and over 8.52.
For the molecule `O=C([C@H](O)c1cccc(-c2ccc3c(c2)OC(F)(F)O3)c1)N1CCc2nc(C3(c4ccccc4)CC3)[nH]c(=O)c2C1` [44-85], the pIC50 reads like this: under setting [1], over 7.30; under setting [2], over 8.52.
On the same counts, the results for `O=C([C@H](O)c1cccc(-c2ccc(Cl)cc2)c1)N1CCc2nc(C3(c4ccccc4)CC3)[nH]c(=O)c2C1` [44-86] are over 7.30 and over 8.00.
As to `O=C([C@H](O)c1cccc(-c2ccc(OCc3ccccn3)cc2)c1)N1CCc2nc(C3(c4ccccc4)CC3)[nH]c(=O)c2C1` [44-87], the pIC50 under setting [1] was over 7.30.
In the case of `O=C([C@H](O)c1cccc(-c2ccc3ncccc3c2)c1)N1CCc2nc(C3(c4ccccc4)CC3)[nH]c(=O)c2C1` [44-88], the pIC50 under setting [1] is over 7.30.
On the same count and under the same terms, next, `O=C([C@H](O)c1cccc(-c2ccc3cnccc3c2)c1)N1CCc2nc(C3(c4ccccc4)CC3)[nH]c(=O)c2C1` [44-89]: over 7.30.
Same read-out and setting: as for `O=C([C@H](O)c1cccc(-c2ccc3cccnc3c2)c1)N1CCc2nc(C3(c4ccccc4)CC3)[nH]c(=O)c2C1` [44-90], the figure is over 7.30; as for `O=C([C@H](O)c1cccc(-c2cncc(C(F)(F)F)c2)c1)N1CCc2nc(C3(c4ccccc4)CC3)[nH]c(=O)c2C1` [44-92], over 7.30.
The molecule `O=C([C@H](O)c1cccc(-c2cccc(OCc3ccccc3)c2)c1)N1CCc2nc(C3(c4ccccc4)CC3)[nH]c(=O)c2C1` [44-93] gave a negative logarithm of the IC50 (pIC50) under setting [1] of over 7.30 and a pIC50 under setting [2] of over 8.00.
The corresponding values for `Cc1ccc(-c2cccc([C@@H](O)C(=O)N3CCc4nc(C5(c6ccccc6)CC5)[nH]c(=O)c4C3)c2)cc1Cl` [44-94] are over 7.30 and over 8.00.
Turning to `O=C([C@H](O)c1cccc(-c2cc3ccccc3s2)c1)N1CCc2nc(C3(c4ccccc4)CC3)[nH]c(=O)c2C1` [44-95], the pIC50 reads like this: under setting [1], over 7.30; under setting [2], over 8.52.
The corresponding values for `Cc1cc(Cl)cc(-c2cccc([C@@H](O)C(=O)N3CCc4nc(C5(c6ccccc6)CC5)[nH]c(=O)c4C3)c2)c1` [44-96] are over 7.30 and over 8.00.
On the same counts, the results for `O=C([C@H](O)c1cccc(-c2ccc(Cl)c(OC(F)(F)F)c2)c1)N1CCc2nc(C3(c4ccccc4)CC3)[nH]c(=O)c2C1` [44-97] are over 7.30 and over 8.00.
Regarding `O=C([C@H](O)c1cccc(-c2cc(Cl)cc(OC(F)(F)F)c2)c1)N1CCc2nc(C3(c4ccccc4)CC3)[nH]c(=O)c2C1` [44-98], the pIC50 was over 7.30 under setting [1] and over 8.52 under setting [2].
The corresponding values for `O=C([C@H](O)c1cccc(-c2cc(Cl)cc(C(F)(F)F)c2)c1)N1CCc2nc(C3(c4ccccc4)CC3)[nH]c(=O)c2C1` [44-99] are over 7.30 and over 8.00.
On the same counts, the results for `O=C([C@H](O)c1cccc(-c2cc(Cl)cc(Cl)c2)c1)N1CCc2nc(C3(c4ccccc4)CC3)[nH]c(=O)c2C1` [44-100] are over 7.30 and over 8.00.
On the same counts, the results for `O=C([C@H](O)c1cccc(-c2ccc(Cl)c(Cl)c2)c1)N1CCc2nc(C3(c4ccccc4)CC3)[nH]c(=O)c2C1` [44-101] are over 7.30 and over 8.00.
Take `O=C([C@H](O)c1cccc(-c2ccc(Cl)c(C(F)(F)F)c2)c1)N1CCc2nc(C3(c4ccccc4)CC3)[nH]c(=O)c2C1` [44-102]: the pIC50 was over 7.30 under setting [1] and over 8.52 under setting [2].
On the same counts, the results for `CC(C)(C)c1cc(-c2cccc([C@@H](O)C(=O)N3CCc4nc(C5(c6ccccc6)CC5)[nH]c(=O)c4C3)c2)cc(C(C)(C)C)c1` [44-103] are over 7.30 and over 8.00.
The corresponding values for `CC(C)Oc1cccc(-c2cccc([C@@H](O)C(=O)N3CCc4nc(C5(c6ccccc6)CC5)[nH]c(=O)c4C3)c2)c1` [44-104] are over 7.30 and over 8.52.
On the same counts, the results for `O=C([C@H](O)c1cccc(-c2cccc(C3CC3)c2)c1)N1CCc2nc(C3(c4ccccc4)CC3)[nH]c(=O)c2C1` [44-105] are over 7.30 and over 8.00.
Under setting [1], `O=C([C@H](O)c1cccc(-c2ccc3c(c2)OCCCO3)c1)N1CCc2nc(C3(c4ccccc4)CC3)[nH]c(=O)c2C1` [44-106] had a pIC50 of over 7.30.
As for `O=C([C@H](O)c1cccc(-c2ccc(OCc3ccccc3)cc2)c1)N1CCc2nc(C3(c4ccccc4)CC3)[nH]c(=O)c2C1` [44-107], the pIC50 was over 7.30 under setting [1] and over 8.00 under setting [2].
The corresponding values for `O=C([C@H](O)c1cccc(-c2cc(Cl)ccc2Cl)c1)N1CCc2nc(C3(c4ccccc4)CC3)[nH]c(=O)c2C1` [44-108] are over 7.30 and over 8.00.
With `O=C([C@H](O)c1cccc(-c2cccc(Cl)c2Cl)c1)N1CCc2nc(C3(c4ccccc4)CC3)[nH]c(=O)c2C1` [44-109], the pIC50 under setting [1] is over 7.30.
Take `N#Cc1cc(Cl)cc(-c2cccc([C@@H](O)C(=O)N3CCc4nc(C5(c6ccccc6)CC5)[nH]c(=O)c4C3)c2)c1` [44-110]: the pIC50 reads like this: under setting [1], over 7.30; under setting [2], over 8.52.
`O=C([C@H](O)c1cccc(-c2ccccc2OCc2ccccc2)c1)N1CCc2nc(C3(c4ccccc4)CC3)[nH]c(=O)c2C1` [44-111] had a pIC50 under setting [1] of over 7.30.
As for `O=C([C@H](O)c1cccc(-c2coc3ccccc23)c1)N1CCc2nc(C3(c4ccccc4)CC3)[nH]c(=O)c2C1` [44-112], the pIC50 is over 7.30 under setting [1] and over 8.00 under setting [2].
Take `Cc1cc(C)cc(-c2cccc([C@@H](O)C(=O)N3CCc4nc(C5(c6ccccc6)CC5)[nH]c(=O)c4C3)c2)c1` [44-113]: the pIC50 under setting [1] was over 7.30.
Same read-out and setting: next, `Cc1ccc(-c2cccc([C@@H](O)C(=O)N3CCc4nc(C5(c6ccccc6)CC5)[nH]c(=O)c4C3)c2)cc1C` [44-114]: over 7.30.
Regarding `CC(C)c1cccc(-c2cccc([C@@H](O)C(=O)N3CCc4nc(C5(c6ccccc6)CC5)[nH]c(=O)c4C3)c2)c1` [44-115], the pIC50 is, setting by setting: under setting [1], over 7.30; under setting [2], over 8.00.
As to `O=C([C@H](O)c1cccc(-c2ccc3c(c2)CCO3)c1)N1CCc2nc(C3(c4ccccc4)CC3)[nH]c(=O)c2C1` [44-116], the pIC50 under setting [1] is over 7.30.
As to `Cc1cc(-c2cccc([C@@H](O)C(=O)N3CCc4nc(C5(c6ccccc6)CC5)[nH]c(=O)c4C3)c2)ccc1Cl` [44-117], the pIC50 is, setting by setting: under setting [1], over 7.30; under setting [2], over 8.00.
The corresponding values for `O=C(C(O)c1cccc(-c2ccc(-c3ccc(Cl)cc3)cc2)c1)N1CCc2nc(C3(c4ccccc4)CC3)[nH]c(=O)c2C1` (stereo not drawn) [44-118] are over 7.30 and over 8.00.
As for `O=C(C(O)c1cccc(-c2cccc(OCc3ccccc3)c2)c1)N1CCc2nc(C3(c4ccccc4)CC3)[nH]c(=O)c2C1` (stereo not drawn) [44-119], the pIC50 is, setting by setting: under setting [1], over 7.30; under setting [2], over 8.00.
The corresponding values for `O=C([C@H](O)c1cccc(-c2ccc(F)c(Cl)c2)c1)N1CCc2nc(C3(c4cccc(Cl)c4)CC3)[nH]c(=O)c2C1` [45-1] are over 7.30 and over 8.52.
With `CC(C)(C)c1cccc(-c2cccc([C@@H](O)C(=O)N3CCc4nc(C5(c6cccc(Cl)c6)CC5)[nH]c(=O)c4C3)c2)c1` [45-2], the pIC50 by setting is: under setting [1], over 7.30; under setting [2], over 8.00.
The corresponding values for `O=C([C@H](O)c1cccc(-c2ccc(Cl)c(C(F)(F)F)c2)c1)N1CCc2nc(C3(c4cccc(Cl)c4)CC3)[nH]c(=O)c2C1` [45-3] are over 7.30 and over 8.00.
`O=C([C@H](O)c1cccc(-c2cccc(C(F)(F)F)c2)c1)N1CCc2nc(C3(c4cccc(Cl)c4)CC3)[nH]c(=O)c2C1` [45-4]: the pIC50 is over 7.30 under setting [1] and over 8.00 under setting [2].
